Assays:
PCP receptor [1] = assay: PCP receptor affinity of IDDC analogs vs. [3H]MK-801 in rat brain membrane (Example 10, Table 2); conditions: read-out: PCP Receptor Affinity IC50 in Rat Brain Membrane vs. [3H]MK-801, MEAN
PCP receptor [2] = assay: PCP receptor binding against 3H-MK-801 (Example 5, Table 1); conditions: for IC50: vs. 3H-MK-801, ± sem (n)
Description: The PCP receptor binding properties of various compounds of the invention against ^3 H-5-methyl-10,11-dihydro-5H-dibenzo[a,d]cycloheptene-5,10-imine (^3 H-MK-801) were determined.

[3] = test system: NMDA receptor-ion channel complex; assay: Whole-cell patch clamp: block of NMDA-induced currents on cultured rat hippocampal neurons (Example 6); format: cell-based; conditions: for inward current on serial applications with NMDA: 10 uM compound with NMDA; for recovery from inhibition of NMDA current: after 10 uM compound
Description: In the electrophysiological studies the compounds are evaluated with respect to their ability to block the ion channel of the NMDA receptor channel complex and thereby inhibit Ca^2+ and Na^+ ion flow into the nerve cell. Initially, the ion channels are opened by activating the NMDA receptor. Ion flow is determined by measuring the passage of electrical current, i.e., a use-dependent decrease in electrical current indicates blocking of the ion channel due to binding of a ligand at a site within the channel.
Hippocampal neurons were obtained from the CA1 region of the hippocampus from 1-3 day-old-newborn rats (Long-Evans). Small blocks of tissue ([…]1mm^3) were incubated in papain (20 units ml^-1; Worthington-Cooper) for 30 minutes. The tissue was dissociated into a single cell suspension by trituration with a fire-polished Pasteur pipette in complete growth medium (Earle's MEM, 20 mM glucose, 50 units/ml penicillin/streptomycin, 5% heat-inactivated fetal calf serum, Serum Extender from Collaborative Research) containing 2.5 mg/ml bovine serum albumin and 2.5 mg/ml trypsin inhibitor (Sigma). The cells were plated onto glass coverslips coated with collagen/poly-D-lysine. Cultures were fed every 3 days by replacing haft the volume of medium. Arabinosylcytosine (5×10^-6 M) was added to the cultures for 1 or 2 days during the first week after plating to suppress the proliferation of non-neuronal cells.
All electrophysiology experiments were performed with the whole-cell mode of patch clamp recording [Hamill, O. D., Marty, A., Neher, E., Sakman, B., and Sigworth, F. J., Pflugers Arch. 391:85-100 (1981)] from neurons grown for 1-3 weeks in culture. Agonists and agonist/antagonist combinations were applied by a U-tube mol (Fenwick et al, J. Physiol. 331:577-597 (1982)) to neurons in whole-cell experiments. The external solution contained (in mM) NaCl 140, KCl 3.5, CaCl2 1, glucose 5, picrotoxinin 0.02, tetrodotoxin (TTX) 5×10^-4, and N-2-hydroxyethyl-piperazine-N'-2-ethanesulfonic acid (HEPES) 10. The pH of this solution was adjusted to 7.4 with NaOH. The internal (patch electrode) solution contained (mM) Cs-methanesulfonate 120, CsCl 10, ethyleneglycol-bis-(β-aminoethylether)-N,N,N',N'-tetraacetic acid (EGTA) 10, HEPES 10 (pH adjusted to 7.0 with CsOH). Membrane current was filtered at 4000 Hz (-3dB; 8-pole Bessel) and recorded on magnetic tape for later analysis. Experiments were performed at room temperature (20°-25° C.). [Sources of chemicals: N-methyl-D-aspartate, Cambridge Research Biochemicals; pirotoxinin, Sigma Chemical Company; salts for recording solutions, Aldrich (Gold Label) or Alfa (Puratronic). [^3 H]Kainate and [3H]CPP and [^3 H]AMPA were purchased from Dupont/NEN (Boston, Mass.)].
Repetitive applications (every 30 s) to the same cell produced currents which varied less than 5% over a period of at least 30 minutes.

rat hippocampal cells = assay: In vitro neurotoxicity assay: protection against glutamate, Trypan Blue survival count (Example 7); format: cell-based; conditions: 10 uM, glutamate 0-1000 uM, 1 uM glycine
Description: In the cytotoxicity studies, cultured mammalian neurons expressing EAA receptors are exposed in vitro to glutamate and the particular compound under investigation. The survival percentage of cells indicates the ability of the compound to protect against glutamate-induced neuronal death.
Dissociated rat hippocampal cultures were prepared using a modification of the method of Huettner and Baughman [Huettner, J. E. and Baugham, R. W., J. Neurosci. 6:3044-3060 (1986)]. The cortices were removed from 1-3 day post-natal rats (Sprague-Dawley) that had been anesthetized with chloral hydrate, and the hippocampi were dissected out and placed in Cl^- free dissociation medium supplemented with 1 mM kynurenic acid and 10 mM MgSO4 (Choi, D. W., J. Neurosci. 7:369-379 (1987)). The hippocampi were washed in the dissociation medium, then incubated for 2×20 minutes at 37° C. in dissociation medium containing 10 units/ml of Papain (Worthington). After the enzyme treatment, the tissue was incubated for three 5-minute periods at 37° C. with 10 mg/ml trypsin inhibitor (Sigma type II-0).
The cells were dissociated by trituration in growth medium and plated as 0.15 ml droplets of cell suspension onto the center of 35 mm Primaria (Falcon) dishes that had been stamped with a labeled 26×26 grid of approximately 0.64 cm^2 total area using a Mecanex BB form (WPI, New Haven, Conn.) and coated with poly-D-lysine and laminin (Collaborative Research). The cell density was between 2.5 and 4.0×10^5 cells per dish. The growth medium was Eagles minimum essential media (MEM, Earle's salts) supplemented with 5% fetal bovine serum (CCL), 5% defined supplemented calf serum (HyClone), 50 mM glucose, 50 units/ml penicillin/streptomycin and MITO+serum extender (Collaborative Research). The cells were maintained at 37° C. in a humidified 4.5% CO2 atmosphere. […]
Before treatment, sister cultures were examined under phase-contrast microscopy to ensure that the cultures were of a similar density. […] The cultures were washed three times and the surviving cells counted in the grid area using phase contrast microscopy. […]

Structure (SMILES)	IC50 (PCP receptor [1])	other results
COc1ccc2c(c1)C1CN(C)C2Cc2ccc(Br)cc21 (racemic) [(±)-3-Br-7-OMe--N--Me-IDDC, 3-Bromo-7-methoxy-N-methyl-5-(iminomethano)-10,11-dihydro-5H-dibenzo[a,d]cycloheptene]	643 nM	
COc1ccc2c(c1)C1CNC2Cc2ccc(Br)cc21 (racemic) [(±)-3-Br-7-OMe-IDDC, 3-bromo-7-methoxy-5-(iminomethano)-10,11-dihydro-5H-dibenzo[a,d]cycloheptene]	114 nM	
CN1CC2c3cc(Br)ccc3CC1c1ccccc12 (racemic) [(±)-3-Br--N--Me-IDDC, 3-bromo-N-methyl-5-(iminomethano)-10,11-dihydro-5H-dibenzo[a,d]cycloheptene]	1040 nM	
Brc1ccc2c(c1)C1CNC(C2)c2ccccc21 (racemic) [(±)-3-Br-IDDC, 3-bromo-5-(iminomethano)-10,11-dihydro-5H-dibenzo-[a,d]cycloheptene]	41 nM	
COc1ccc2c(c1)C1CNC2Cc2ccc(Cl)cc21 (racemic) [(±)-3-Cl-7-OMe-IDDC, 3-chloro-7-methoxy-5-(iminomethano)-10,11-dihydro-5H-dibenzo[a,d]cycloheptene]	113 nM	
Clc1ccc2c(c1)C1CNC(C2)c2ccccc21 (racemic) [(±)-3-Cl-IDDC]	64.2 nM	
Fc1ccc2c(c1)C1CNC(C2)c2ccccc21 (racemic) [(±)-3-F-IDDC]	29.4 nM	
Ic1ccc2c(c1)C1CNC(C2)c2ccccc21 (racemic) [(±)-3-Iodo-IDDC, 3-iodo-5-(iminomethano)-10,11-dihydro-5H-dibenzo-[a,d]cycloheptene]	160 nM	
Nc1ccc2c(c1)C1CNC(C2)c2ccccc21 (racemic) [(±)-3-NH2-IDDC, 3-amino-5-(iminomethano)-10,11-dihydro-5H-dibenzo[a,d]cycloheptene]	486 nM	
COc1ccc2c(c1)C1CNC(C2)c2ccccc21 (racemic) [(±)-3-OMe-IDDC, 3-methoxy-5-(iminomethano)-10,11-dihydro-5H-dibenzo-[a,d]cycloheptane]	168 nM	
CC12CNC(Cc3ccccc31)c1ccccc12 (racemic) [(±)-5-Me-IDDC, 5-methyl-10,5-(iminomethano)-10,11-dihydro-5H-dibenzo[a,d]cycloheptene]	119 nM	IC50 (PCP receptor [2]): 125 nM
Clc1ccc2c(c1)C1CNC2Cc2ccccc21 (racemic) [(±)-7-Cl-IDDC, 7-Chloro-5-(iminomethano)-10,11-dihydro-5H-dibenzo-[a,d]cycloheptene]	690 nM	
COc1ccc2c(c1)C1CNC2Cc2ccccc21 (racemic) [(±)-7-OMe-IDDC, 7-Methoxy-5-(iminomethano)-10,11-dihydro-5H-dibenzo-[a,d]cycloheptene]	332 nM	
CC12NC(Cc3ccccc31)c1ccccc12 (single isomer, unassigned) [MK-801, 5-methyl-10,11-dihydro-5H-dibenzo[a,d]cycloheptene-5,10-imine, reference compound]		inward current on serial applications with NMDA [3]: the inward current became progressively smaller with serial applications; recovery from inhibition of NMDA current [3]: required repeated applications of NMDA alone and was speeded by holding the membrane potential at positive voltages
CN1CC2c3ccccc3CC1c1ccccc12 (single isomer, unassigned) [N-methyl IDDC, N-methyl-10,5-(iminomethano)-10,11-dihydro-5H-dibenzo[a,d]cycloheptene]		cell survival compared to control (rat hippocampal cells): enhanced cell survival when compared to control values
Clc1ccc2c(c1)C1CNC(C2)c2ccccc21 (single isomer, unassigned; (+)) [(+)-3-Chloro-IDDC, (+) 3-Chloro-5-(iminomethano)-10,11-dihydro-5H-dibenzo-[a,d]cycloheptene]	14 nM	
Fc1ccc2c(c1)C1CNC(C2)c2ccccc21 (single isomer, unassigned; (+)) [(+)-3-Fluoro-IDDC, (+)-3-fluoro-5-(iminomethano)-10,11-dihydro-5H-dibenzo-[a,d]cycloheptene]	18 nM	
Clc1ccc2c(c1)C1CNC(C2)c2ccccc21 (single isomer, unassigned; (-)) [(-)-3-Chloro-IDDC, (-)-3-Chloro-5-(iminomethano)-10,11-dihydro-5H-dibenzo-[a,d]cycloheptene]	110 nM	
CN1C[C@H]2c3ccccc3C[C@@H]1c1ccccc12 [(+)-N--Me-IDDC, N-methyl-10,5-(iminomethano)-10,11-dihydro-5H-dibenzo[a,d]cycloheptene]	65.4 nM	inward current on serial applications with NMDA [3]: Serial applications evoked progressively smaller currents; rate of recovery from blockade compared with MK-801 ([3]; 10 uM, relative to MK-801): somewhat more rapid than the rate of recovery of responses following MK-801; inhibition of NMDA current ([3]; 10 uM, 50 uM NMDA + 1 uM glycine, -60 mV): inhibited the NMDA current in a use-dependent and voltage-dependent manner; recovery from inhibition of NMDA current [3]: reversed only with prolonged or repeated application of NMDA; affinity for the PCP receptor compared with MK-801 (PCP receptor [2]; relative to MK-801): lower affinity than MK-801 for the PCP receptor; IC50 (PCP receptor [2]): 800 ± 9 nM
CN[C@H](CC(=O)O)C(=O)O [NMDA, N-methyl-D-aspartate, reference compound]		inward whole-cell current ([3]; 50 uM NMDA + 1 uM glycine, three second applications, -60 mV): 100-1000 pA

Reference: patent publication US5688789A, “PCP receptor ligands and the use thereof” (State of Oregon, acting by and through the Oregon State …, priority 1995, dated 1997)
